The values that follow come from patent US20110287108A1 (priority 2008, published 2011).

Counter-ions that a name gives are not always drawn. Like-named read-outs stand apart in the source and are kept apart here.

The subject of this experiment is Phytophthora infestans. It is filed as in vivo. To be noted: tomato plants.
Where [1] appears, read: protective, 3 days after inoculation, 12.5 ppm a.i.
Setting [2] is: protective, 3 days after inoculation, 0.5 ppm a.i.
The mark [3] stands for this setting: protective, 3 days after inoculation, 0.25 ppm a.i.

In the case of fosetyl-aluminium, under setting [1], the “Efficacy in % found” value is given as 42%. With `COc1ccc(C(=CC(=O)N2CCOCC2)c2ccc(Cl)cc2)cc1OC` [dimethomorph], the “Efficacy in % found” value under setting [2] turned out to be 35%. Regarding `CCC(C)(NC(=O)c1cc(Cl)c(C)c(Cl)c1)C(=O)CCl` (stereo not drawn) [zoxamide], the “Efficacy in % found” value under setting [3] stood at 18%.

As for `CC(C)[C@H](NC(=O)O)C(=O)N[C@H](C)c1nc2ccc(F)cc2s1` [benthiavalicarb], the “Efficacy in % found” value under setting [3] is given as 16%. Same read-out and setting: in the case of `O=C(NCc1ncc(C(F)(F)F)cc1Cl)c1c(Cl)cccc1Cl` [fluopicolide] it was 4%. For `CCCCCNc1cccc(CON=C(c2ccccc2)c2nnnn2C)n1` [6-[({[(1-methyl-1H-tetrazol-5-yl)(phenyl)methylene]amino}oxy)methyl]-N-pentylpyridin-2-amine], the “Efficacy in % found” value (protective spray, evaluated 3 days after inoculation, application rate cell empty) came to 69%.

Regarding `CCCCCCNc1cccc(CON=C(c2ccccc2)c2nnnn2C)n1` [N-hexyl-6-[({[(1-methyl-1H-tetrazol-5-yl)(phenyl)methylene]amino}oxy)-methyl]pyridin-2-amine], the “Efficacy in % found” value by setting is: under setting [3], 48%; under setting [2], 63%. Turning to `N#Cc1c(Cl)c(Cl)c(Cl)c(C#N)c1Cl` [chlorothalonil], the “Efficacy in % found” value under setting [1] is given as 19%.

For the molecule `CCCOC(=O)NCCCN(C)C` [propamocarb-HCl], the “Efficacy in % found” value (protective, 3 days after inoculation, 25 ppm a.i.) turned out to be 24%. Turning to `[Cl-].[Cu+2].[Cu+2].[OH-].[OH-].[OH-]` [copper oxychloride], the “Efficacy in % found” value under setting [1] amounted to 58%. On the same count and under the same terms, in the case of `OP(O)O` [phosporous acid] it was 33%.
